Measured values published in patent EP4692094A1 (Beijing Konruns Pharmaceutical Co., Ltd., priority 2023, dated 2024).

These compounds were tested against T1, KAT6A (Homo sapiens, UniProt Q92794) (assay: Enzymatic activity assay for KAT6A acetyltransferase (TR-FRET, acetylation of histone substrate H3)).
T1 construct: purchased active motife (Active Motif) 81223
T1 sequence (Q92794 whole entry): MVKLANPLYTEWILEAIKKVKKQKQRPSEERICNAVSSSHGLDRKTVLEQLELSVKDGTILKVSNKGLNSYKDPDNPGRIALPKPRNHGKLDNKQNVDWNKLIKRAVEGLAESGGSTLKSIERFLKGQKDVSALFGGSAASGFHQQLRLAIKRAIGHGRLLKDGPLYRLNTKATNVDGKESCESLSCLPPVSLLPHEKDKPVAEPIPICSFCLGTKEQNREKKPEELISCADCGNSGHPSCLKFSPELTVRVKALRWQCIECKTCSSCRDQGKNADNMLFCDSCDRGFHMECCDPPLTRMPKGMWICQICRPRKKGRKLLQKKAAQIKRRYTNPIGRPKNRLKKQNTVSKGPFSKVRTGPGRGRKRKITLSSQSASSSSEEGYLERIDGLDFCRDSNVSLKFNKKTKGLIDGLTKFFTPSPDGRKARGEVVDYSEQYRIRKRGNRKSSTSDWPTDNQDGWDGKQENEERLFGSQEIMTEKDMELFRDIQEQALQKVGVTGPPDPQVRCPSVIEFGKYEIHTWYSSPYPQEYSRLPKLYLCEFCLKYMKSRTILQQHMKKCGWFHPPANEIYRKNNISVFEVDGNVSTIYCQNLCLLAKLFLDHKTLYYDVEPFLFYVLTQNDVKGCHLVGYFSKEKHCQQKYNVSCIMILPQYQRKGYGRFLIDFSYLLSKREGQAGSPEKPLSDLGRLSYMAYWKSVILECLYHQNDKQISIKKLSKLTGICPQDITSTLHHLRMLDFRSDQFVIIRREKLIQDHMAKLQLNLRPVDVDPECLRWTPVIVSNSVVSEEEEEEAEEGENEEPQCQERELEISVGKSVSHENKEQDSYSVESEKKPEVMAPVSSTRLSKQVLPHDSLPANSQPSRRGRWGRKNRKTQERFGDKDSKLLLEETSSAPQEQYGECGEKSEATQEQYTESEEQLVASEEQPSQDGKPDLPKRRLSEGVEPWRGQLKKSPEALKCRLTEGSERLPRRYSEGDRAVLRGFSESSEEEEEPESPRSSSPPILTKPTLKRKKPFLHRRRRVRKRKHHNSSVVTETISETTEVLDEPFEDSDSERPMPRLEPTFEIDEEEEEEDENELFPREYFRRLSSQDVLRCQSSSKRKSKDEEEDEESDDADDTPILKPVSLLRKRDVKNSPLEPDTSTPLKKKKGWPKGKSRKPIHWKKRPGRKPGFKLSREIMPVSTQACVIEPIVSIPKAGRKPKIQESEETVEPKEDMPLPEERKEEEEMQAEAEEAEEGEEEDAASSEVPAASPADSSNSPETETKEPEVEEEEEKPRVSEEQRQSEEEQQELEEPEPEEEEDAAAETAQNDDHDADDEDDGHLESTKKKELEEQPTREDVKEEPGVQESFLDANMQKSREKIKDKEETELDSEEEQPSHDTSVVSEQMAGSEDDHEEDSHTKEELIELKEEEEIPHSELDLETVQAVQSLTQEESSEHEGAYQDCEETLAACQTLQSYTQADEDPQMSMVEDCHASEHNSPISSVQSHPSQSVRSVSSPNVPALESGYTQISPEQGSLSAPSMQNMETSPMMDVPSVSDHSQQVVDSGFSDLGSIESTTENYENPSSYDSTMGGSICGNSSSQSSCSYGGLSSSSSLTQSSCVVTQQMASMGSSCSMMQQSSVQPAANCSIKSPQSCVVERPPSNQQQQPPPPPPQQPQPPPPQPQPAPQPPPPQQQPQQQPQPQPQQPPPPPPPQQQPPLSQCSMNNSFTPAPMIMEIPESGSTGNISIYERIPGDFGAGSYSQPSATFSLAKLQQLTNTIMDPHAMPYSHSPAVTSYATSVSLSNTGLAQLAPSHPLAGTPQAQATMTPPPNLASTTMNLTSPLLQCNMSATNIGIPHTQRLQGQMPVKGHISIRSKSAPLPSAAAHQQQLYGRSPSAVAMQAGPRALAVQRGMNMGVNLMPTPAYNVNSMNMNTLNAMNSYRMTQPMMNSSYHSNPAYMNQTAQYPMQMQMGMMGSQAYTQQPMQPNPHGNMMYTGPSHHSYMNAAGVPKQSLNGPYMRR
Format: biochemical
Experimental: The acetylation effect of KAT6A on histone substrate H3 was determined using the TR-FRET (time-resolved fluorescence resonance energy transfer) method.
• 1) The compounds prepared in the examples of the present disclosure were each dissolved in dimethylsulfoxide to give solutions at a concentration of 10 mmol/L, and then the solutions were diluted to 0.2 mmol/L, i.e., 1 µL of the compound was added to 49 µL of DMSO, and 3-fold dilution was performed to give 10 concentrations. • 2) 50 nL of the test compounds (example compounds) were transferred to 384 reaction plates using Echo, two replicates for each compound, and the plates were centrifuged at a rotation speed of 1000 rpm for 1 min, the final concentration of dimethylsulfoxide (DMSO) being 0.5%. • 3) 2.5 µL of the reaction mixtures obtained in step 2 was added to the 384 reaction plates in step 2), and the plates were centrifuged at 1000 rpm for 1 min and incubated at 25 °C for 10 min. • 4) 2.5 µL of Bio-H3&AcCOA (acetyl-CoA) reaction solution was added to the 384 reaction plates in step 3), and the plates were centrifuged at a rotation speed of 1000 rpm for 1 min and incubated at 25 °C for 90 min. • 5) 5 µL of Eu-Ab& Ulight-SA detection solution was added to the 384 reaction plates in step 4), and the plates were centrifuged at 1000 rpm for 1 min and incubated at 25 °C for 60 min. • 6) The HTRF […] signals were read using a BMG high-throughput drug-screening multi-mode microplate reader.
The acetylation level of the histone H3 was analyzed by the GraphPad Prism 8 software. The reading of the negative control (0.5% DMSO wells) was set as 0% inhibition rate, and the reading of the positive control (wells with the highest concentration of the control compound) was set as 100% inhibition rate. The inhibition rates were calculated, and then IC50 values (half maximal inhibitory concentration) of test compounds were obtained by using a software nonlinear fitting formula; [formula]
Datapositive control: mean of positive control well values; Datanegative control: mean of negative control well values. Table 3. Enzymatic inhibitory activity of example compounds
`COc1cc2c(cc1S(=O)(=O)Nc1noc3cc(Cn4cccn4)nc(OC)c13)CCC2` [Example 70, N-(6-((1H-Pyrazol-1-yl)methyl)-4-methoxyisoxazolo[4,5-c]pyridin-3-yl)-6-methoxy-2,3-dihydro-1H-indene-5-sulfonamide] showed an IC50 of 0.85 nM.
Compound `COc1ccc2ccoc2c1S(=O)(=O)Nc1noc2cc(Cn3ccc(C)n3)nc(OC)c12` [Example 71, 6-Methoxy-N-(4-methoxy-6-((3-methyl-1H-pyrazol-1-yl)methyl)isoxazolo[4,5-c]pyridin-3-yl)benzofuran-7-sulfonamide] has an IC50 of 4.49 nM.
In the case of `COc1ccc(S(=O)(=O)Nc2noc3cc(Cn4cccn4)nc(OC)c23)c2c1CCO2` [Example 72, N-(6-((1H-Pyrazol-1-yl)methyl)-4-methoxyisoxazolo[4,5-c]pyridin-3-yl)-4-methoxy-2,3-dihydrobenzofuran-7-sulfonamide], the IC50 is reported as 5.1 nM.
`COc1ccc2c(c1S(=O)(=O)Nc1noc3cc(Cn4cccn4)nc(OC)c13)OCCO2` [Example 73, N-(6-((1H-Pyrazol-1-yl)methyl)-4-methoxyisoxazolo[4,5-c]pyridin-3-yl)-6-methoxy-2,3-dihydrobenzo[b][1,4]dioxine-5-sulfonamide] showed an IC50 of 0.97 nM.
For `COc1ccc2c(c1S(=O)(=O)Nc1noc3cc(Cn4cccn4)nc(OC)c13)OC(C)(C)O2` [Example 74, N-(6-((1H-Pyrazol-1-yl)methyl)-4-methoxyisoxazolo[4,5-c]pyridin-3-yl)-5-methoxy-2,2-dimethyl-1,3-benzodioxolane-4-sulfonamide], the IC50 was 1.77 nM.
Compound `COc1ccc2c(c1S(=O)(=O)Nc1noc3cc(Cn4cccn4)nc(OC)c13)CCC2` [Example 77, N-(6-((1H-Pyrazol-1-yl)methyl)-4-methoxyisoxazolo[4,5-c]pyridin-3-yl)-5-methoxy-2,3-dihydro-1H-indene-4-sulfonamide] has an IC50 of 1.91 nM.
With `COc1ccc2occ(S(=O)(=O)Nc3noc4cc(Cn5cccn5)nc(OC)c34)c2c1` [Example 78, N-(6-((1H-Pyrazol-1-yl)methyl)-4-methoxyisoxazolo[4,5-c]pyridin-3-yl)-5-methoxybenzofuran-3-sulfonamide] the IC50 was 7.97 nM.
For `COc1ccc2ccoc2c1S(=O)(=O)Nc1noc2cc(Cn3cc(C)cn3)nc(OC)c12` [Example 83, 6-Methoxy-N-(4-methoxy-6-((4-methyl-1H-pyrazol-1-yl)methyl)isoxazolo[4,5-c]pyridin-3-yl)benzofuran-7-sulfonamide], the IC50 was 4.12 nM.
For `COc1cc2c(c(S(=O)(=O)Nc3noc4cc(Cn5cccn5)nc(OC)c34)c1)OCCC2` [Example 84, N-(6-((1H-Pyrazol-1-yl)methyl)-4-methoxyisoxazolo[4,5-c]pyridin-3-yl)-6-methoxy-3,4-dihydro-1H-benzopyran-8-sulfonamide], the IC50 was 1.21 nM.
`COc1c(S(=O)(=O)Nc2noc3cc(Cn4cccn4)nc(OC)c23)ccc2ccoc12` [Example 86, N-(6-((1H-Pyrazol-1-yl)methyl)-4-methoxyisoxazolo[4,5-c]pyridin-3-yl)-7-methoxybenzofuran-6-sulfonamide] gave an IC50 of 10 nM.
`COc1c(S(=O)(=O)Nc2noc3cc(Cn4cccn4)nc(OC)c23)ccc2c1OCO2` [Example 87, N-(6-((1H-Pyrazol-1-yl)methyl)-4-methoxyisoxazolo[4,5-c]pyridin-3-yl)-4-methoxy-1,3-benzodioxole-5-sulfonamide] was tested, and the IC50 was 2.67 nM.
With `COc1nc(Cn2cccn2)cc2onc(NS(=O)(=O)c3ccc4c(c3)OC(F)(F)O4)c12` [Example 89, N-(6-((1H-Pyrazol-1-yl)methyl)-4-methoxyisoxazolo[4,5-c]pyridin-3-yl)-2,2-difluoro-1,3-benzodioxole-5-sulfonamide] the IC50 was 16.8 nM.
Compound `COc1nc(Cn2cccn2)cc2onc(NS(=O)(=O)c3ccc(C#CC4CC4)c4ccoc34)c12` [Example 90, N-(6-((1H-Pyrazol-1-yl)methyl)-4-methoxyisoxazolo[4,5-c]pyridin-3-yl)-4-(cyclopropylethynyl)benzofuran-7-sulfonamide] has an IC50 of 7.18 nM.
`COc1cc2c(cc1S(=O)(=O)Nc1noc3cc(C(F)(F)n4cccn4)nc(OC)c13)CCCC2` [Example 91, N-(6-(Difluoro(1H-pyrazol-1-yl)methyl)-4-methoxyisoxazolo[4,5-c]pyridin-3-yl)-3-methoxy-5,6,7,8-tetrahydronaphthalene-2-sulfonamide] gave an IC50 of 17.6 nM.
`COc1ccc(S(=O)(=O)Nc2noc3cc(Cn4cccn4)nc(OC)c23)c2c1C=CCO2` [Example 94, N-(6-((1H-Pyrazol-1-yl)methyl)-4-methoxyisoxazolo[4,5-c]pyridin-3-yl)-5-methoxy-2H-benzopyran-8-sulfonamide] gave an IC50 of 2.37 nM.
In the case of `COc1ccc(S(=O)(=O)Nc2noc3cc(Cn4cccn4)nc(OC)c23)c2c1CCCO2` [Example 95, N-(6-((1H-Pyrazol-1-yl)methyl)-4-methoxyisoxazolo[4,5-c]pyridin-3-yl)-5-methoxy-3,4-dihydro-1H-benzopyran-8-sulfonamide], the IC50 is reported as 1.63 nM.
`C#Cc1ccc(S(=O)(=O)Nc2noc3cc(Cn4cccn4)nc(OC)c23)c2occc12` [Example 96, N-(6-((1H-pyrazol-1-yl)methyl)-4-methoxyisoxazolo[4,5-c]pyridin-3-yl)-4-ethynyl-benzofuran-7-sulfonamide] was tested, and the IC50 was 6.67 nM.
Work on `COc1cc2c(c(OC)c1S(=O)(=O)Nc1noc3cc(Cn4cccn4)nc(OC)c13)CCO2` [Example 97, N-(6-((1H-pyrazol-1-yl)methyl)-4-methoxyisoxazolo[4,5-c]pyridin-3-yl)-4,6-dimethoxy-2,3-dihydrobenzofuran-5-sulfonamide] yielded an IC50 of 0.95 nM.
Compound `COc1cc(OC)c(S(=O)(=O)Nc2noc3cc(Cn4cccn4)nc(OC)c23)c2c1CCO2` [Example 98, N-(6-((1H-pyrazol-1-yl)methyl)-4-methoxyisoxazolo[4,5-c]pyridin-3-yl)-4,6-dimethoxy-2,3-dihydrobenzofuran-7-sulfonamide] has an IC50 of 0.84 nM.
Work on `COc1cc2c(c(S(=O)(=O)Nc3noc4cc(Cn5cccn5)nc(OC)c34)c1)OC(C)(C)CC2` [Example 99] yielded an IC50 of 2.79 nM.
For `COc1ccc2c(c1S(=O)(=O)Nc1noc3cc(Cn4cccn4)nc(OC)c13)OC(C)(C)C2` [Example 100, N-(6-((1H-pyrazol-1-yl)methyl)-4-methoxyisoxazolo[4,5-c]pyridin-3-yl)-6-methoxy-2,2-dimethyl-3H-benzofuran-7-sulfonamide], the IC50 was 1.06 nM.
With `COc1cc2c(cc1S(=O)(=O)Nc1noc3cc(Cn4cccn4)nc(OC)c13)OCC2(C)C` [Example 101, N-(6-((1H-pyrazol-1-yl)methyl)-4-methoxyisoxazolo[4,5-c]pyridin-3-yl)-5-methoxy-3,3-dimethyl-2H-benzofuran-6-sulfonamide] the IC50 was 2.04 nM.
In the case of `[2H]c1cc2ccc(OC)c(S(=O)(=O)Nc3noc4cc(Cn5cccn5)nc(OC)c34)c2o1` [Example 102, N-(6-((1H-pyrazol-1-yl)methyl)-4-methoxyisoxazolo[4,5-c]pyridin-3-yl)-6-methoxybenzofuran-7-sulfonamide-2-d], the IC50 is reported as 0.83 nM.
`[2H]C1Oc2cc(S(=O)(=O)Nc3noc4cc(Cn5cccn5)nc(OC)c34)c(OC)cc2C1[2H]` (stereo not drawn) [Example 103, N-(6-((1H-pyrazol-1-yl)methyl)-4-methoxyisoxazolo[4,5-c]pyridin-3-yl)-5-methoxy-2,3-dihydrobenzofuran-6-sulfonamide-2,3-d2] was tested, and the IC50 was 1.86 nM.
